Laboratory results from patent US11266643B2, “Triaryl compounds for treatment of PD-L1 diseases” (CHEMOCENTRYX, INC., priority 2019, dated 2022).

Biological target: human PD-L1 (Homo sapiens (Human), UniProt Q9NZQ7)
Test: Enzyme-Linked Immunosorbent Assay (ELISA), PD-1/PD-L1 binding
Conditions: PD-1/PD-L1 ELISA, human PD-L1 coated plates, Table 1
Outline: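 Competitive ELISA: human PD-1 […] (0.31 μg/mL) and serially diluted compounds (1:5) incubated 1 h at 37° C on wells coated with […] human PD-L1. Signal via streptavidin-HRP/TMB, stopped with 2 N H2SO4, measured as A450.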

human PD-L1, sequence (Q9NZQ7 19-239): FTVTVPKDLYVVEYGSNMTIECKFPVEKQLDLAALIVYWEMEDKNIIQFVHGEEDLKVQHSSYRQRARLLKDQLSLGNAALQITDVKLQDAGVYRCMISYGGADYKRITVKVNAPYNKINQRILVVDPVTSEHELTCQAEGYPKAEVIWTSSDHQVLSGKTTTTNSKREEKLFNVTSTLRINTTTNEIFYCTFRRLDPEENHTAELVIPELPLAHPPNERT

Row | SMILES | IC50
1 | COc1cc(-c2cccc(-c3cccc(NC(=O)c4c[nH]c(=O)n(C)c4=O)c3C)c2C)cc(F)c1CN[C@@H]1CCCC[C@@H]1O [Example 1.217] | < 10 nM
2 | COc1cc(-c2cccc(-c3cccc(NC(=O)c4c[nH]c(=O)n(C)c4=O)c3C)c2C)cc(F)c1CN[C@@H]1CCC[C@@H]1O [Example 1.218] | < 10 nM
3 | COc1cc(-c2cccc(-c3cccc(Nc4nccc5c4C(=O)N(C)CC5)c3C)c2C)cc(F)c1CN1CC(C(=O)OC(C)C)C1 [Example 1.219] | 10 to 1000 nM
4 | COc1cc(-c2cccc(-c3cccc(NC(=O)c4c[nH]c(=O)n(C)c4=O)c3C)c2C)cc(F)c1CN(C)CCO [Example 1.220] | < 10 nM
5 | COc1cc(-c2cccc(-c3cccc(NC(=O)c4cncn(C)c4=O)c3C)c2C)cc(F)c1CNCCO [Example 1.221] | < 10 nM
6 | COc1cc(-c2cccc(-c3cccc(NC(=O)c4c[nH]c(=O)n(C)c4=O)c3C)c2C)cc(F)c1CNC[C@@H](C)O [Example 1.222] | < 10 nM
7 | COc1cc(-c2cccc(-c3cccc(NC(=O)c4c[nH]c(=O)n(C)c4=O)c3C)c2C)cc(F)c1CNC[C@H](C)O [Example 1.223] | < 10 nM
8 | COc1cc(-c2cccc(-c3cccc(NC(=O)c4c[nH]c(=O)n(C)c4=O)c3C)c2C)cc(F)c1CNC1CCOC1 (stereo not drawn) [Example 1.224] | < 10 nM
9 | COc1cc(-c2cccc(-c3cccc(NC(=O)c4c[nH]c(=O)n(C)c4=O)c3C)c2C)cc(F)c1CN[C@H](C)CO [Example 1.225] | < 10 nM
10 | COc1cc(-c2cccc(-c3cccc(NC(=O)c4c[nH]c(=O)n(C)c4=O)c3C)c2C)cc(F)c1CN[C@@H](C)CO [Example 1.226] | < 10 nM
11 | COc1cc(-c2cccc(-c3cccc(NC(=O)c4c[nH]c(=O)n(C)c4=O)c3C)c2C)cc(F)c1CN1CC(N)C1 [Example 1.227] | < 10 nM
12 | COc1cc(-c2cccc(-c3cccc(NC(=O)c4c[nH]c(=O)n(C)c4=O)c3C)c2C)cc(F)c1CN1CCC(N)C1 (stereo not drawn) [Example 1.228] | 10 to 1000 nM
13 | COc1cc(-c2cccc(-c3cccc(NC(=O)c4c[nH]c(=O)n(C)c4=O)c3C)c2C)cc(F)c1CN[C@@H]1CNC(=O)C1 [Example 1.229] | < 10 nM
14 | COc1cc(-c2cccc(-c3cccc(NC(=O)c4c[nH]c(=O)n(C)c4=O)c3C)c2C)cc(F)c1CN[C@H]1CCC(=O)NC1 [Example 1.230] | < 10 nM
15 | COc1cc(-c2cccc(-c3cccc(Nc4nccc5nccnc45)c3C)c2C)cc(F)c1CN1CC(O)C1 [Example 1.231] | < 10 nM
16 | COc1cc(-c2cccc(-c3cccc(NC(=O)c4c[nH]c(=O)n(C)c4=O)c3C)c2C)cc(F)c1CNCC(C)(C)O [Example 1.232] | < 10 nM
17 | COc1cc(-c2cccc(-c3cccc(NC(=O)c4c[nH]c(=O)n(C)c4=O)c3C)c2C)cc(F)c1CNCCN [Example 1.234] | < 10 nM
18 | COc1cc(-c2cccc(-c3cccc(NC(=O)c4c[nH]c(=O)n(C)c4=O)c3C)c2C)cc(F)c1CN1CCOCC1 [Example 1.235] | 10 to 1000 nM
19 | COc1cc(-c2cccc(-c3cccc(NC(=O)c4c[nH]c(=O)n(C)c4=O)c3C)c2C)cc(F)c1CNC(C)C [Example 1.236] | < 10 nM
20 | COc1cc(-c2cccc(-c3cccc(Nc4nccc5nccnc45)c3C)c2C)cc(F)c1CNCCO [Example 1.238] | < 10 nM
21 | COc1cc(-c2cccc(-c3cccc(Nc4nccc5nccnc45)c3C)c2C)cc(F)c1CNCC(N)=O [Example 1.239] | 10 to 1000 nM

Row | SMILES | IC50
22 | COc1cc(-c2cccc(-c3cccc(Nc4nccc5nccnc45)c3C)c2C)cc(F)c1CNCC(=O)O [Example 1.240] | < 10 nM
23 | COc1cc(-c2cccc(-c3cccc(NC(=O)c4c[nH]c(=O)n(C)c4=O)c3C)c2C)cc(F)c1CN(C)C [Example 1.241] | < 10 nM
24 | COc1cc(-c2cccc(-c3cccc(NC(=O)c4c[nH]c(=O)n(C)c4=O)c3C)c2C)cc(F)c1CN1CC2(C1)NC(=O)NC2=O [Example 1.242] | 10 to 1000 nM
25 | COc1cc(-c2cccc(-c3cccc(Nc4ncnc5cccnc45)c3C)c2C)cc(F)c1CN1CC(C(=O)O)C1 [Example 1.243] | 1000 to 10000 nM
26 | COc1cc(-c2cccc(-c3cccc(Nc4nccc5c4OCCN5)c3C)c2C)cc(F)c1CN1CC(C(=O)O)C1 [Example 1.244] | 10 to 1000 nM
27 | COc1cc(-c2cccc(-c3cccc(Nc4ccnc5nccnc45)c3C)c2C)cc(F)c1CN1CC(C(=O)O)C1 [Example 1.245] | < 10 nM
28 | COc1cc(-c2cccc(-c3cccc(Nc4cccc5cncnc45)c3C)c2C)cc(F)c1CN1CC(C(=O)O)C1 [Example 1.246] | 10 to 1000 nM
29 | COc1cc(-c2cccc(-c3cccc(NC(=O)c4c[nH]c(=O)n(C)c4=O)c3C)c2C)cc(F)c1CN(C)CCC(=O)O [Example 1.247] | 10 to 1000 nM
30 | COc1cc(-c2cccc(-c3cccc(Nc4cccc5nccnc45)c3C)c2C)cc(F)c1CN1CC(C(=O)O)C1 [Example 1.248] | 10 to 1000 nM
31 | COc1cc(-c2cccc(-c3cccc(Nc4nccn5ccnc45)c3C)c2C)cc(F)c1CN1CC(C(=O)O)C1 [Example 1.249] | 10 to 1000 nM
32 | COc1cc(-c2cccc(-c3cccc(Nc4cccc5c4C(=O)N(C)C5)c3C)c2C)cc(F)c1CN1CC(C(=O)O)C1 [Example 1.250] | 10 to 1000 nM
33 | COc1cc(-c2cccc(-c3cccc(NC(=O)c4c[nH]c(=O)n(C)c4=O)c3C)c2C)cc(F)c1CN(C)CC(N)=O [Example 1.251] | 10 to 1000 nM
34 | COc1cc(-c2cccc(-c3cccc(NC(=O)c4c[nH]c(=O)n(C)c4=O)c3C)c2C)cc(F)c1CNCC(N)=O [Example 1.252] | 10 to 1000 nM
35 | COc1cc(-c2cccc(-c3cccc(Nc4cncc5nccnc45)c3C)c2C)cc(F)c1CN1CC(C(=O)O)C1 [Example 1.253] | < 10 nM
36 | COc1cc(-c2cccc(-c3cccc(NC(=O)c4cncn(C)c4=O)c3C)c2C)cc(F)c1CN[C@H]1CCC(=O)NC1 [Example 1.255] | < 10 nM
37 | COc1cc(-c2cccc(-c3cccc(Nc4cccc5cccnc45)c3C)c2C)cc(F)c1CN1CC(C(=O)O)C1 [Example 1.256] | 10 to 1000 nM
38 | COc1cc(-c2cccc(-c3cccc(NC(=O)c4c[nH]c(=O)n(C)c4=O)c3C)c2C)cc(F)c1CN1CCC2(C1)NC(=O)NC2=O (stereo not drawn) [Example 1.257] | 10 to 1000 nM
39 | COc1cc(-c2cccc(-c3cccc(NC(=O)c4cncn(C)c4=O)c3C)c2C)cc(F)c1CNCCS(=O)(=O)O [Example 1.260] | < 10 nM
40 | COc1cc(-c2cccc(-c3cccc(NC(=O)c4c[nH]c(=O)n(C)c4=O)c3C)c2C)cc(F)c1CNCC(=O)O [Example 1.261] | < 10 nM
41 | COc1cc(-c2cccc(-c3cccc(Nc4nccc5ccccc45)c3C)c2C)cc(F)c1CN1CC(C(=O)O)C1 [Example 1.262] | 1000 to 10000 nM
42 | COc1cc(-c2cccc(-c3cccc(Nc4ccnc5cccnc45)c3C)c2C)cc(F)c1CN1CC(C(=O)O)C1 [Example 1.263] | 10 to 1000 nM

Row | SMILES | IC50
43 | COc1cc(-c2cccc(-c3cccc(Nc4cc5c(cn4)C(=O)NCC5)c3C)c2C)cc(F)c1CN1CC(C(=O)O)C1 [Example 1.264] | 10 to 1000 nM
44 | COc1cc(-c2cccc(-c3cccc(Nc4nccc5c4C(=O)N(C)CC5)c3C)c2C)cc(F)c1CN1CC(C(=O)O)C1 [Example 1.265] | < 10 nM
45 | COc1cc(-c2cccc(-c3cccc(NC(=O)c4cncn(C)c4=O)c3C)c2C)cc(F)c1CNCCC(=O)O [Example 1.266] | < 10 nM
46 | COc1cc(-c2cccc(-c3cccc(NC(=O)c4cncn(C)c4=O)c3C)c2C)cc(F)c1CNCC(=O)O [Example 1.267] | < 10 nM
47 | COc1cc(-c2cccc(-c3cccc(NC(=O)c4cncn(C)c4=O)c3C)c2C)cc(F)c1CN(C)CCC(=O)O [Example 1.268] | < 10 nM
48 | COc1cc(-c2cccc(-c3cccc(NC(=O)c4cncn(C)c4=O)c3C)c2C)cc(F)c1CN1CCC2(C1)NC(=O)NC2=O (stereo not drawn) [Example 1.269] | < 10 nM
49 | COc1cc(-c2cccc(-c3cccc(NC(=O)c4c[nH]c(=O)n(C)c4=O)c3C)c2C)cc(F)c1CNCCO [Example 1.270] | < 10 nM
50 | COc1cc(-c2cccc(-c3cccc(NC(=O)c4c[nH]c(=O)n(C)c4=O)c3C)c2C)cc(F)c1CN1CC(O)C1 [Example 1.271] | < 10 nM
51 | COc1cc(-c2cccc(-c3cccc(NC(=O)c4cnc(C)[nH]c4=O)c3C)c2C)cc(F)c1CN1CC(C(=O)O)C1 [Example 1.272] | 10 to 1000 nM
52 | COc1cc(-c2cccc(-c3cccc(Nc4nccc5nccnc45)c3C)c2C)cc(F)c1CN1CC(C(=O)O)C1 [Example 1.273] | < 10 nM
53 | COc1cc(-c2cccc(-c3cccc(NC(=O)c4c(C)cc(C)n(C)c4=O)c3C)c2C)cc(F)c1CN1CC(C(=O)O)C1 [Example 1.275] | 10 to 1000 nM
54 | COc1cc(-c2cccc(-c3cccc(NC(=O)c4cccn(CCO)c4=O)c3C)c2C)cc(F)c1CN1CC(C(=O)O)C1 [Example 1.277] | < 10 nM
55 | COc1cc(-c2cccc(-c3cccc(Nc4nccc5ccn(C)c(=O)c45)c3C)c2C)cc(F)c1CN1CC(C(=O)O)C1 [Example 1.278] | < 10 nM
56 | COc1cc(-c2cccc(-c3cccc(NC(=O)c4cccn(C)c4=O)c3C)c2C)cc(F)c1CNCCCC(=O)O [Example 1.279] | < 10 nM
57 | COc1cc(-c2cccc(-c3cccc(NC(=O)c4cccn(C)c4=O)c3C)c2C)cc(F)c1CNCCS(=O)(=O)O [Example 1.280] | < 10 nM
58 | COc1cc(-c2cccc(-c3cccc(NC(=O)c4cccn(C)c4=O)c3C)c2C)cc(F)c1CNCC(C)(C)O [Example 1.281] | < 10 nM
59 | COc1cc(-c2cccc(-c3cccc(NC(=O)c4cccn(C)c4=O)c3C)c2C)cc(F)c1CNCCC(=O)O [Example 1.282] | < 10 nM
60 | COc1cc(-c2cccc(-c3cccc(NC(=O)c4c[nH]c(=O)n(C)c4=O)c3C)c2C)cc(F)c1CN1CC(C(=O)O)C1 [Example 1.283] | < 10 nM
61 | COc1cc(-c2cccc(-c3cccc(Nc4cccc5ccn(C)c(=O)c45)c3C)c2C)cc(F)c1CN1CC(C(=O)O)C1 [Example 1.284] | 10 to 1000 nM
62 | COc1cc(-c2cccc(-c3cccc(NC(=O)c4ccc(C(=O)NCCO)cn4)c3C)c2C)cc(F)c1CN1CC(C(=O)O)C1 [Example 1.285] | < 10 nM
63 | COc1cc(-c2cccc(-c3cccc(Nc4cccc5ncn(C)c(=O)c45)c3C)c2C)cc(F)c1CN1CC(C(=O)O)C1 [Example 1.287] | < 10 nM
